According to the NIST ThermoML archive (doi:10.1021/je040002p):
Numbers after ± are expanded uncertainties.

How the values were obtained:
[1] = Liquid; for mass density: 101.33 kPa, Pycnometric method
[2] = refractive index (Na D-line) (dimensionless); conditions: 101.33 kPa, Liquid, Standard Abbe refractometry

SMILES	mass density ([1]; 293.15 K)	Normal boiling temperature [1]	refractive index ([2]; 293.15 K)	mass density ([1]; 303.15 K)	refractive index ([2]; 303.15 K)
CCCCC(C)=O [2-hexanone]	811.2 ± 0.8 kg/m3	127.54 ± 0.13 °C	1.4008 ± 0.0007	–	–
OC1CCCCC1 [cyclohexanol]	–	160.74 ± 0.14 °C	–	941.6 ± 0.9 kg/m3	1.4621 ± 0.0007
CCCCCCCCC [nonane]	717.6 ± 0.7 kg/m3	150.82 ± 0.14 °C	1.4055 ± 0.0007	–	–
